Test systems include A549; SW-620; T47D; EKVX; HOP-62; HT-29; Hs-578T; HCT-15; LOX IMVI; NCI-H460; OVCAR-8; RPMI-8226; SF-539; PC-3; HCT-116; SK-MEL-28; OVCAR-4; SK-OV-3; HOP-92.
Common to all, as to experiment: NCI anticancer screen, dose series, 48 h

Structures are written as SMILES.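 Five concentrations, 48 hours, 96-well plates. GI50: concentration for 50% inhibition of growth.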 Activity calls are given as the source filed them. Rule as the data show it: active = GI50 up to about 1.1 µM and inactive = higher.

`CN(C)CCNC(=O)c1cc([N+](=O)[O-])cc2c1Oc1ccccc1O2`: the GI50 is 13.5 µM (inactive) in the experiment on A549; 11.9 µM (inactive) in the experiment on SW-620; 18.5 µM (inactive) in the experiment with T47D; 56.1 µM (inactive) in the experiment with EKVX; 22.5 µM (inactive) in the experiment with HOP-62; 17.3 µM (inactive) in the experiment with HT-29. Also, the GI50 with Hs-578T is 28.6 µM (inactive); in the experiment on HCT-15, above 10 µM; in the experiment with LOX IMVI, 12.9 µM (inactive); in the experiment with NCI-H460, 4.23 µM (inactive); in the experiment with OVCAR-8 it was 14.4 µM (inactive); in the experiment with RPMI-8226, 18.6 µM (inactive). For the same compound, the GI50 in the experiment with SF-539 was 24.8 µM (inactive); in the experiment on PC-3 it was 42 µM (inactive); in the experiment with HCT-116, 7.33 µM (inactive); in the experiment on SK-MEL-28, 35.2 µM (inactive); in the experiment with OVCAR-4, 40.6 µM (inactive).
For `COc1ccc(C2=CC(c3ccccc3)n3nnnc3N2)cc1` (stereo unspecified), the GI50 in the experiment on A549 was > 100 µM (inactive); in the experiment with SW-620, > 100 µM (inactive); with T47D it was 56.9 µM (inactive); in the experiment with HOP-62 it was 40.6 µM (inactive); with HT-29 it was > 100 µM (inactive); in the experiment on Hs-578T it was 76.9 µM (inactive). Moreover, the GI50 in the experiment with SK-OV-3 is > 100 µM (inactive); in the experiment with HCT-15 it was above 100 µM; in the experiment on LOX IMVI, > 100 µM (inactive); in the experiment on NCI-H460, > 100 µM (inactive); in the experiment with OVCAR-8, > 100 µM (inactive); in the experiment on RPMI-8226, 7.14 µM (inactive). Besides, the GI50 with SF-539, with PC-3 and with HCT-116 was > 100 µM (inactive) in each case.
In the case of `N#Cc1ccccc1NC(=O)C(O)C(O)C(O)C(O)C=O` (stereo unspecified), the GI50 in the experiment with A549, with SW-620, in the experiment with T47D, in the experiment with EKVX, in the experiment on HT-29 and in the experiment on Hs-578T was > 100 µM (inactive) in each case. The GI50 was > 100 µM (inactive) in the experiment on SK-OV-3; above 100 µM in the experiment with HCT-15; > 100 µM (inactive) in the experiment on HOP-92; > 100 µM (inactive) in the experiment on LOX IMVI; > 100 µM (inactive) in the experiment on NCI-H460; > 100 µM (inactive) in the experiment with OVCAR-8. In addition, the GI50 in the experiment with SF-539, in the experiment on PC-3, in the experiment with HCT-116, in the experiment on SK-MEL-28 and in the experiment with OVCAR-4 was > 100 µM (inactive) in each case.
In the case of `CCOC(=O)CC1CCN(C(=O)c2ccccc2)C2Cc3c([nH]c4ccccc34)C12C[N+](=O)[O-]` (stereo unspecified), the GI50 in the experiment on SW-620 was > 100 µM (inactive); in the experiment with T47D it was 54.3 µM (inactive); in the experiment on EKVX, > 100 µM (inactive); in the experiment on HOP-62, 46.1 µM (inactive); with HT-29 it was 62.2 µM (inactive); with Hs-578T, > 100 µM (inactive). The GI50 is > 100 µM (inactive) in the experiment with SK-OV-3; 95.7 µM with HCT-15; 40.6 µM (inactive) in the experiment on HOP-92; > 100 µM (inactive) in the experiment on LOX IMVI; 65.6 µM (inactive) with NCI-H460; 79.3 µM (inactive) in the experiment with OVCAR-8. The GI50 is > 100 µM (inactive) in the experiment on SF-539, 43.5 µM (inactive) in the experiment with PC-3, > 100 µM (inactive) with SK-MEL-28 and > 100 µM (inactive) in the experiment with OVCAR-4.
For the compound `CSC(SC)=C1CC(=O)Nc2ccccc2C1=O`, the GI50 is > 100 µM (inactive) with A549; 29.9 µM (inactive) in the experiment with T47D; > 100 µM (inactive) in the experiment with EKVX; > 100 µM (inactive) with HOP-62; > 100 µM (inactive) with HT-29; 63.7 µM (inactive) in the experiment with Hs-578T. The GI50 in the experiment on SK-OV-3 is > 100 µM (inactive); with HCT-15 it was 36.1 µM; with HOP-92 it was 22.2 µM (inactive); with LOX IMVI it was 17.4 µM (inactive); in the experiment with NCI-H460 it was > 100 µM (inactive); with OVCAR-8, > 100 µM (inactive). The GI50 in the experiment on SF-539 was 58.7 µM (inactive); in the experiment on PC-3, > 100 µM (inactive); in the experiment with HCT-116, > 100 µM (inactive); with SK-MEL-28 it was 36.8 µM (inactive); with OVCAR-4, > 100 µM (inactive).
On to `CC#CC#C/C=C1/O[C@]2(CCC(OC(=O)CC(C)C)CO2)[C@@H]2O[C@H]12` (stereo partly specified), for which the GI50 in the experiment with A549 is 39.6 µM (inactive); in the experiment on SW-620, 19.2 µM (inactive); in the experiment on T47D, 20.5 µM (inactive); with EKVX, 28.9 µM (inactive); in the experiment on HOP-62, 42.7 µM (inactive); in the experiment on HT-29, 18.2 µM (inactive). Also, the GI50 was 52.5 µM (inactive) in the experiment on Hs-578T; > 100 µM (inactive) in the experiment on SK-OV-3; 21 µM with HCT-15; 27.4 µM (inactive) in the experiment on HOP-92; 16.2 µM (inactive) in the experiment on LOX IMVI; 36.1 µM (inactive) in the experiment on NCI-H460. Further, the GI50 in the experiment with OVCAR-8 is 32.4 µM (inactive); with RPMI-8226, 19.7 µM (inactive); with PC-3, 23.5 µM (inactive); in the experiment on HCT-116 it was 15.4 µM (inactive); with OVCAR-4, 29.6 µM (inactive).
With `Cc1cc(-c2nc3cc(F)c(F)cc3s2)ccc1N`, the GI50 in the experiment with A549 is > 55.5 µM (inactive); in the experiment on SW-620 it was > 60.5 µM (inactive); with T47D, < 0.015 µM (active); in the experiment with EKVX it was > 79.8 µM (inactive); in the experiment with HOP-62, 39.7 µM (inactive); in the experiment on HT-29 it was > 61.1 µM (inactive). Further, the GI50 with Hs-578T is 61.1 µM (inactive); in the experiment on SK-OV-3, > 64 µM (inactive); in the experiment on HCT-15, above 61.4 µM; with HOP-92 it was > 100 µM (inactive); in the experiment on LOX IMVI it was > 82.4 µM (inactive); in the experiment on NCI-H460, > 100 µM (inactive). The GI50 with OVCAR-8 was > 45.4 µM (inactive); in the experiment with RPMI-8226, > 63.4 µM (inactive); in the experiment with PC-3 it was > 52.5 µM (inactive); in the experiment on HCT-116 it was > 55.6 µM (inactive); in the experiment with SK-MEL-28, > 100 µM (inactive); with OVCAR-4, 60.7 µM (inactive).
Take `OCCCCCNc1c2ccccc2nc2ccccc12`: the GI50 in the experiment on A549 is 2.65 µM (inactive); in the experiment on SW-620, 2.55 µM (inactive); in the experiment with T47D, 2.82 µM (inactive); with EKVX, 3.4 µM (inactive); with HOP-62, 1.38 µM (inactive); with HT-29, 1.44 µM (inactive). The GI50 in the experiment on Hs-578T was 3.18 µM (inactive); with SK-OV-3, 3.05 µM (inactive); in the experiment on HCT-15, 3.57 µM; with LOX IMVI, 1.89 µM (inactive); with NCI-H460 it was 1.01 µM (active); in the experiment with OVCAR-8, 2.34 µM (inactive). Moreover, the GI50 in the experiment on RPMI-8226 is 3.44 µM (inactive); with SF-539, 2.75 µM (inactive); in the experiment with PC-3, 1.98 µM (inactive); in the experiment on HCT-116, 1.45 µM (inactive); in the experiment on SK-MEL-28, 3.85 µM (inactive); in the experiment on OVCAR-4 it was 2.31 µM (inactive).
As to `O=S1(=O)N=C(SCc2ccccc2)N(c2ccccc2)c2ccncc21`, the GI50 with A549 is 32.6 µM (inactive); with SW-620, 56 µM (inactive); with T47D it was 29.2 µM (inactive); in the experiment with EKVX, 24.4 µM (inactive); in the experiment on HOP-62 it was 31.3 µM (inactive); in the experiment with HT-29, 43.9 µM (inactive). For the same compound, the GI50 was 31.7 µM (inactive) with Hs-578T; 38.8 µM (inactive) in the experiment on SK-OV-3; 26.5 µM with HCT-15; 22.2 µM (inactive) in the experiment with HOP-92; 53.7 µM (inactive) in the experiment on LOX IMVI; 28.8 µM (inactive) in the experiment with NCI-H460. In addition, the GI50 was 47.3 µM (inactive) with OVCAR-8; 66.2 µM (inactive) in the experiment with SF-539; 25.7 µM (inactive) in the experiment on PC-3; 35.3 µM (inactive) with HCT-116; 91.2 µM (inactive) in the experiment with SK-MEL-28; 23.3 µM (inactive) in the experiment on OVCAR-4.
Consider `COc1ccc(C2=NNC(c3cc4cc(Br)ccc4nc3Cl)C2)cc1` (stereo unspecified), for which the GI50 is 10.9 µM (inactive) in the experiment with SW-620; 0.0887 µM (active) with T47D; 19.4 µM (inactive) in the experiment on EKVX; 14.6 µM (inactive) in the experiment on HT-29; 0.0129 µM (active) with Hs-578T; > 25 µM (inactive) in the experiment with HOP-92. The GI50 with NCI-H460 is 10 µM (inactive); with RPMI-8226, 5.74 µM (inactive); in the experiment with PC-3 it was 11.9 µM (inactive); in the experiment on HCT-116 it was 10.5 µM (inactive); with SK-MEL-28, 15.5 µM (inactive); in the experiment on OVCAR-4, 15.3 µM (inactive).
Take `CC(C)=CCC[C@@H](C)C1=C(O)C(=O)C(C)=C(Nc2ccccc2F)C1=O`: the GI50 was 17.2 µM (inactive) with A549; 23.8 µM (inactive) in the experiment on SW-620; 14.6 µM (inactive) with T47D; 49.2 µM (inactive) with EKVX; 11.6 µM (inactive) in the experiment with HOP-62; 33.3 µM (inactive) with HT-29. In addition, the GI50 with Hs-578T was 9.62 µM (inactive); in the experiment on SK-OV-3, 25.7 µM (inactive); in the experiment with HCT-15 it was 5.2 µM; in the experiment with HOP-92, 21.1 µM (inactive); in the experiment on LOX IMVI, 16.4 µM (inactive); in the experiment on NCI-H460, 12 µM (inactive). The GI50 is 7.19 µM (inactive) with OVCAR-8; 8.26 µM (inactive) in the experiment on RPMI-8226; 12.3 µM (inactive) with PC-3; 13.3 µM (inactive) in the experiment on HCT-116; 38.6 µM (inactive) in the experiment with SK-MEL-28; 15 µM (inactive) in the experiment on OVCAR-4.
For the compound `O=[N+]([O-])C(Cl)=C/C(=C(\Cl)SCc1ccccc1)[N+](=O)[O-]`, the GI50 is 24.8 µM (inactive) with A549; 21.2 µM (inactive) in the experiment on SW-620; 16.9 µM (inactive) in the experiment on T47D; 17.7 µM (inactive) in the experiment with EKVX; 18.9 µM (inactive) in the experiment with HOP-62; 24.7 µM (inactive) with HT-29. The GI50 in the experiment on Hs-578T was 53 µM (inactive); in the experiment on SK-OV-3, 59.7 µM (inactive); in the experiment with HCT-15, 18.2 µM; in the experiment with HOP-92, 15.4 µM (inactive); in the experiment with LOX IMVI, 16.5 µM (inactive); in the experiment with NCI-H460, 28.2 µM (inactive). Moreover, the GI50 in the experiment with OVCAR-8 was 23.5 µM (inactive); with SF-539, 21 µM (inactive); in the experiment with PC-3, 22.1 µM (inactive); in the experiment with HCT-116, 18.4 µM (inactive); with SK-MEL-28, 26.3 µM (inactive); in the experiment on OVCAR-4 it was 18.1 µM (inactive).

The record behind these values is ChEMBL document CHEMBL1201862, “PubChem BioAssay data set” (2004).
